Patent US20070015132A1 (priority 2001, published 2007)

Columns and labels:
[1] = tested on: Mouse fibroblast cells (ATCC CRL-10225); experiment: Glucose and lactate metabolic rate of fibroblast cells exposed to toxicants in 24-well plate; conditions: 6 hours; for glucose metabolic rate / lactate metabolic rate: different concentrations; for cell death on exposure: trypan blue exclusion
[2] = tested on: Mouse fibroblast cells (ATCC CRL-10225); assay type: cell-based

| SMILES | glucose metabolic rate [1] | lactate metabolic rate [1] | cell death on exposure [1] | effect on medium acidification rate at low concentrations [2] | effect on medium acidification rate with concentration increasing [2] | cell death on exposure ([1]; concentration 10 mM) |
| --- | --- | --- | --- | --- | --- | --- |
| O=[N+]([O-])c1ccc(O)c([N+](=O)[O-])c1 [2,4-dinitrophenol] | opposite impact | opposite impact | not observed | stimulate | stimulation effects become weak until inhibition effects are observed | – |
| [F-].[Na+] [fluoride, sodium fluoride] | inhibited in concentration dependent manner | inhibited in concentration dependent manner | – | – | – | all cells died |
